According to patent US10457709B2, “Antimicrobial peptides, their variants and uses” (priority 2015, dated 2019):
Like-named read-outs stand apart in the source and are kept apart here. Square brackets hold non-standard residues; d marks the D form. Peptide text beside a SMILES is read from it.

Tests used:
[1] = test system: C. parapsilosis clinical strains; assay: MIC, clinical yeast strains; assay type: cell-based, Candida parapsilosis; set-up: unit: µg/ml
Outline: (§1)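 Antifungal testing uses potato dextrose broth; antibacterial testing uses Mueller Hinton broth. Cell density is set to 5.0×10^5 cfu/ml and incubation runs 20–24 h at 37° C. MIC is the lowest concentration, within 0.125–128 μg/ml, at which no growth is visible.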

[2] = test system: C. glabrata clinical strains; assay: MIC, clinical yeast strains; assay type: cell-based, Candida glabrata; set-up: unit: µg/ml
Outline: as §1

[3] = test system: Candida albicans clinical strains; assay: MIC, clinical yeast strains; assay type: cell-based; set-up: unit: μg/ml
Outline: as §1

[4] = test system: Enterobacter cloacae clinical strains; assay type: cell-based; set-up: Minimum inhibitory concentration: unit: μg/ml; conditions: microdilution, Muller Hinton broth-cation adjusted, 0.02% BSA, 0.2% acetic acid
Outline: as §1

[5] = test system: Proteus mirabilis clinical strains; assay type: cell-based; set-up: Minimum inhibitory concentration: unit: μg/ml; conditions: for Minimum inhibitory concentration: microdilution, Muller Hinton broth-cation adjusted, 0.02% BSA, 0.2% acetic acid
Outline: as §1

[6] = test system: Streptococcus pneumoniae clinical strains; assay type: cell-based; set-up: Minimum inhibitory concentration: unit: μg/ml; conditions: microdilution, Muller Hinton broth-cation adjusted, 0.02% BSA, 0.2% acetic acid
Outline: as §1

[7] = test system: Staphylococcus aureus clinical strains; assay type: cell-based; set-up: Minimum inhibitory concentration: unit: μg/ml; conditions: microdilution, Muller Hinton broth-cation adjusted, 0.02% BSA, 0.2% acetic acid
Outline: as §1

[8] = test system: Serratia marcescens clinical strains; assay type: cell-based; set-up: Minimum inhibitory concentration: unit: μg/ml; conditions: for Minimum inhibitory concentration: microdilution, Muller Hinton broth-cation adjusted, 0.02% BSA, 0.2% acetic acid
Outline: as §1

[9] = test system: Acinetobacter baumannii clinical strains; assay type: cell-based; set-up: Minimum inhibitory concentration: unit: μg/ml; conditions: microdilution, Muller Hinton broth-cation adjusted, 0.02% BSA, 0.2% acetic acid
Outline: as §1

[10] = test system: C. quillermondiae clinical strains; assay: MIC, clinical yeast strains; assay type: cell-based, Candida quillermondiae; set-up: unit: μg/ml; conditions: C. quillermondiae clinical yeast strain 1
Outline: as §1

[11] = test system: all the bacteria and yeasts tested; assay type: cell-based
Outline: as §1

[12] = test system: Klebsiella pneumoniae clinical strains; assay type: cell-based; conditions: microdilution, Muller Hinton broth-cation adjusted, 0.02% BSA, 0.2% acetic acid
Outline: as §1

[13] = test system: Pseudomonas aeruginosa clinical strains; assay type: cell-based; conditions: microdilution, Muller Hinton broth-cation adjusted, 0.02% BSA, 0.2% acetic acid
Outline: as §1

[14] = test system: Escherichia coli clinical strains; assay type: cell-based; conditions: microdilution, Muller Hinton broth-cation adjusted, 0.02% BSA, 0.2% acetic acid
Outline: as §1

CC[C@@H](C)[C@@H](NC(=O)[C@@H](Cc1c[nH]c2ccccc12)NC(=O)[C@H](N)CCCCN)C(=O)N[C@@H](C(=O)N[C@H](Cc1c[nH]c2ccccc12)C(=O)N[C@H](CCCNC(=N)N)C(=O)N[C@H](Cc1c[nH]c2ccccc12)C(=O)N[C@H](CCCNC(=N)N)C(=O)N[C@H](Cc1ccccc1)C(=O)N[C@H](CCCCN)C(=O)N[C@H](CCCNC(=N)N)C(=O)O)C(C)C [Chain201D] (H-[dK][dW][dI][dV][dW][dR][dW][dR][dF][dK][dR]-OH)
Minimum inhibitory concentration ([1]; C. parapsilosis clinical yeast strain 1): 8
Minimum inhibitory concentration ([1]; C. parapsilosis clinical yeast strain 2): 8
Minimum inhibitory concentration ([1]; C. parapsilosis clinical yeast strain 3): 8
Minimum inhibitory concentration ([1]; C. parapsilosis clinical yeast strain 4): 8
Minimum inhibitory concentration ([2]; C. glabrata clinical yeast strain 1): 8
Minimum inhibitory concentration ([2]; C. glabrata clinical yeast strain 2): 8
Minimum inhibitory concentration ([2]; C. glabrata clinical yeast strain 3): 8
Minimum inhibitory concentration ([2]; C. glabrata clinical yeast strain 4): 64
Minimum inhibitory concentration ([3]; Candida albicans clinical yeast strain 1): 16
Minimum inhibitory concentration ([3]; Candida albicans clinical yeast strain 2): 8
Minimum inhibitory concentration ([3]; Candida albicans clinical yeast strain 3): 8
Minimum inhibitory concentration ([3]; Candida albicans clinical yeast strain 4): 16
Minimum inhibitory concentration ([3]; Candida albicans clinical yeast strain 5): 8
Minimum inhibitory concentration ([4]; Enterobacter cloacae clinical strain 1): 1
Minimum inhibitory concentration ([4]; Enterobacter cloacae clinical strain 2): 2
Minimum inhibitory concentration ([4]; Enterobacter cloacae clinical strain 3): 2
Minimum inhibitory concentration ([4]; Enterobacter cloacae clinical strain 4): 2
Minimum inhibitory concentration ([4]; Enterobacter cloacae clinical strain 5): 1
Minimum inhibitory concentration ([5]; Proteus mirabilis clinical strain 1): >128
Minimum inhibitory concentration ([5]; Proteus mirabilis clinical strain 2): 32
Minimum inhibitory concentration ([5]; Proteus mirabilis clinical strain 3): 64
Minimum inhibitory concentration ([5]; Proteus mirabilis clinical strain 4): >128
Minimum inhibitory concentration ([5]; Proteus mirabilis clinical strain 5): >128
MICs against Proteus mirabilis ([5]; clinical strains): 64 to 128 µg/mL
Minimum inhibitory concentration ([6]; Streptococcus pneumoniae clinical strain 1): 8
Minimum inhibitory concentration ([6]; Streptococcus pneumoniae clinical strain 2): 4
Minimum inhibitory concentration ([6]; Streptococcus pneumoniae clinical strain 3): 2
Minimum inhibitory concentration ([6]; Streptococcus pneumoniae clinical strain 4): 4
Minimum inhibitory concentration ([6]; Streptococcus pneumoniae clinical strain 5): 4
Minimum inhibitory concentration ([7]; Staphylococcus aureus clinical strain 1): 1
Minimum inhibitory concentration ([7]; Staphylococcus aureus clinical strain 2): 1
Minimum inhibitory concentration ([7]; Staphylococcus aureus clinical strain 3): 1
Minimum inhibitory concentration ([7]; Staphylococcus aureus clinical strain 4): 1
Minimum inhibitory concentration ([7]; Staphylococcus aureus clinical strain 5): 1
Minimum inhibitory concentration ([8]; Serratia marcescens clinical strain 1): 64
Minimum inhibitory concentration ([8]; Serratia marcescens clinical strain 2): 64
Minimum inhibitory concentration ([8]; Serratia marcescens clinical strain 3): 64
Minimum inhibitory concentration ([8]; Serratia marcescens clinical strain 4): 64
Minimum inhibitory concentration ([8]; Serratia marcescens clinical strain 5): 128
MICs against Serratia marcescens ([8]; clinical strains): 64 to 128 µg/mL
Minimum inhibitory concentration ([9]; Acinetobacter baumannii clinical strain 1): 4
Minimum inhibitory concentration ([9]; Acinetobacter baumannii clinical strain 2): 4
Minimum inhibitory concentration ([9]; Acinetobacter baumannii clinical strain 3): 4
Minimum inhibitory concentration ([9]; Acinetobacter baumannii clinical strain 4): 4
Minimum inhibitory concentration ([9]; Acinetobacter baumannii clinical strain 5): 4
Minimum inhibitory concentration [10]: 8
MICs against all the bacteria and yeasts tested [11]: 0.5 to 32 µg/mL
Minimum inhibitory concentration ([12]; Klebsiella pneumoniae clinical strain 1): 2
Minimum inhibitory concentration ([12]; Klebsiella pneumoniae clinical strain 2): 2
Minimum inhibitory concentration ([12]; Klebsiella pneumoniae clinical strain 3): 4
Minimum inhibitory concentration ([12]; Klebsiella pneumoniae clinical strain 4): 4
Minimum inhibitory concentration ([12]; Klebsiella pneumoniae clinical strain 5): 2
Minimum inhibitory concentration ([13]; Pseudomonas aeruginosa clinical strain 1): 4
Minimum inhibitory concentration ([13]; Pseudomonas aeruginosa clinical strain 2): 4
Minimum inhibitory concentration ([13]; Pseudomonas aeruginosa clinical strain 3): 4
Minimum inhibitory concentration ([13]; Pseudomonas aeruginosa clinical strain 4): 2
Minimum inhibitory concentration ([13]; Pseudomonas aeruginosa clinical strain 5): 2
Minimum inhibitory concentration ([14]; Escherichia coli clinical strain 1): 16
Minimum inhibitory concentration ([14]; Escherichia coli clinical strain 2): 1
Minimum inhibitory concentration ([14]; Escherichia coli clinical strain 3): 1
Minimum inhibitory concentration ([14]; Escherichia coli clinical strain 4): 1
Minimum inhibitory concentration ([14]; Escherichia coli clinical strain 5): 1
